Results as given in patent publication US20260258035A1, “FIVE-MEMBERED AND SIX-MEMBERED NITROGEN-CONTAINING COMPOUND, AND INTERMEDIATE, PREPARATION METHOD AND USE THEREOF” (HANGZHOU SYNRX THERAPEUTICS BIOMEDICAL TECHNOLOGY CO., LTD., priority 2022, published 2026).
Where two headings read alike, the source gives them in different places.

Experiments:
PARG = PARG (Homo sapiens, UniProt Q86W56); experiment: Biochemical assay (PARG, TFMU-ADPr substrate)
HCC1806 = experiment: Cell viability assay (CellTiter-Glo); format: cell-based, Human; settings: HCC1806, 7 days, CellTiter-Glo, read-out: IC50 (nM) in cell viability assay
[1] = 4 nM PARG, 66.2 uM TFMU-ADPr, 3 min at room temperature

Chain of PARG (Q86W56 whole entry): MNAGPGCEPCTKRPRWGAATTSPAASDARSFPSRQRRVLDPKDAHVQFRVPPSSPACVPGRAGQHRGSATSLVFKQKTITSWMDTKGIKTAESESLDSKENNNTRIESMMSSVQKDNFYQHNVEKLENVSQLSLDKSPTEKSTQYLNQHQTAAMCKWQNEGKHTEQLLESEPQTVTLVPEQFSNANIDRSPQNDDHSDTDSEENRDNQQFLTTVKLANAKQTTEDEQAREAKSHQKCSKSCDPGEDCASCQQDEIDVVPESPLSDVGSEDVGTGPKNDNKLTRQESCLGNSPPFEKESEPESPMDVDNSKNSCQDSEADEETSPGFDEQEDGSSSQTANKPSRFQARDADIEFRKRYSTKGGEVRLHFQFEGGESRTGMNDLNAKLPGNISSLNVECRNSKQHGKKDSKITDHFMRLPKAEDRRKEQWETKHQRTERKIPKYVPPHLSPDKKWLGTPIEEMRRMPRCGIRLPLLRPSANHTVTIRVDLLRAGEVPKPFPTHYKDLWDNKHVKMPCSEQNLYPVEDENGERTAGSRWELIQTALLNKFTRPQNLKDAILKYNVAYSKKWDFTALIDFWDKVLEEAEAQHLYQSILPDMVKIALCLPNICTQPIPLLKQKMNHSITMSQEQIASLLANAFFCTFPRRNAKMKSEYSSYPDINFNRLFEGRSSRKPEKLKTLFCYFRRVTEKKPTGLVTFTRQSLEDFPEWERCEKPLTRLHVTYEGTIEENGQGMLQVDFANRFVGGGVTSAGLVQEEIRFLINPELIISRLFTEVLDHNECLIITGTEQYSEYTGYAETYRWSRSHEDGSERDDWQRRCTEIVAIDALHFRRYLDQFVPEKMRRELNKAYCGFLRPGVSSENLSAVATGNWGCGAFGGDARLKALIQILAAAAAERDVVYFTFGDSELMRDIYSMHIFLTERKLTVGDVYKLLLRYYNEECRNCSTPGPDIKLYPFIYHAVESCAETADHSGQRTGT

Compound | IC50 (PARG; PARG, TFMU-ADPr substrate) | IC50 (HCC1806; Homo sapiens, HCC1806, 168 h) | IC50 (PARG; [1]) | IC50 (HCC1806)
C[C@H]1CN(c2cc(S(=O)(=O)NC3(C)COC3)cn3c(-c4nnc(C(F)F)s4)ncc23)C[C@H](CO)O1 [Example 396, 3-(5-(difluoromethyl)-1,3,4-thiadiazol-2-yl)-8-((2R,6S)-2-(hydroxymethyl)-6-methylmorpholino)-N-(3-methyloxetan-3-yl)imidazo[1,5-a]pyridine-6-sulfonamide] | 2.08 nM | 36.8 nM |  | 
CC(C)S(=O)(=O)N1CCN(c2cc(S(=O)(=O)NC3CC3)cn3c(-c4nnc(C(F)(F)F)s4)ncc23)CC1 [Example 215, N-cyclopropyl-8-(4-(isopropylsulfonyl)piperazin-1-yl)-3-(5-(trifluoromethyl)-1,3,4-thiadiazol-2-yl)imidazo[1,5-a]pyridine-6-sulfonamide] | 69.2 nM | 1500 nM |  | 
Cc1cnc(-c2cnn3c(N4CCN(C(=O)C(C)C)CC4)cc(S(=O)(=O)NC4(C#N)CC4)cc23)s1 [Example 29, N-(1-cyanocyclopropyl)-7-(4-isobutyrylpiperazin-1-yl)-3-(5-methylthiazol-2-yl)pyrazolo[1,5-a]pyridine-5-sulfonamide] | 94.6 nM | 5000 to 30000 nM | < 100 nM | 
CN(C)C(=O)N1CCN(c2cc(S(=O)(=O)NC3(C)CC3)cn3c(-c4nnc(C(F)F)s4)ncc23)CC1 [Example 308, 4-(3-(5-(difluoromethyl)-1,3,4-thiadiazol-2-yl)-6-(N-(1-methylcyclopropyl)sulfamoyl)imidazo[1,5-a]pyridin-8-yl)-N,N-dimethylpiperazine-1-carboxamide] | 0.73 nM | 104 nM |  | 
N#CC1(NS(=O)(=O)c2cc(N3CCN(C(=O)C4(F)CNC4)CC3)c3cnc(-c4nnc(C(F)(F)F)s4)n3c2)CC1 [Example 278, N-(1-cyanocyclopropyl)-8-(4-(3-fluoroazetidine-3-carbonyl)piperazin-1-yl)-3-(5-(trifluoromethyl)-1,3,4-thiadiazol-2-yl)imidazo[1,5-a]pyridine-6-sulfonamide] | 40.7 nM | 1980 nM |  | 
C[C@H]1CN(c2cc(S(=O)(=O)NC3(C)COC3)cn3c(-c4nnc(C(F)F)s4)ncc23)C[C@H](C)O1 [Example 354, 3-(5-(difluoromethyl)-1,3,4-thiadiazol-2-yl)-8-((2S,6S)-2,6-dimethylmorpholino)-N-(3-methyloxetan-3-yl)imidazo[1,5-a]pyridine-6-sulfonamide] | 0.27 nM | 65.8 nM |  | 
CC(C)C(=O)N1CC2(C=C(c3nc(-c4nnc(C(F)(F)F)s4)n4cc(S(=O)(=O)NC5(C#N)CC5)ccc34)CC2)C1 [Example 389, N-(1-cyanocyclopropyl)-1-(2-isobutyryl-2-azaspiro[3.4]oct-5-en-6-yl)-3-(5-(trifluoromethyl)-1,3,4-thiadiazol-2-yl)imidazo[1,5-a]pyridine-6-sulfonamide] | 20 nM | 2130 nM |  | 
C[C@H]1CN(c2cc(S(=O)(=O)NC3(C)COC3)cn3c(-c4nnc(C(F)F)s4)ncc23)CCN1 [Example 181, (S)-3-(5-(difluoromethyl)-1,3,4-thiadiazol-2-yl)-N-(3-methyloxetan-3-yl)-8-(3-methylpiperazin-1-yl)imidazo[1,5-a]pyridine-6-sulfonamide] | 1.78 nM | 151 nM |  | 
CC(C)C(=O)N1CCN(c2cc(S(=O)(=O)NC3(CF)COC3)cn3c(-c4nnc(C(F)F)s4)nnc23)CC1 [Example 106, 3-(5-(difluoromethyl)-1,3,4-thiadiazol-2-yl)-N-(3-(fluoromethyl)oxetan-3-yl)-8-(4-isobutyrylpiperazin-1-yl)-[1,2,4]triazolo[4,3-a]pyridine-6-sulfonamide] | 28.2 nM | 5000 to 30000 nM | < 100 nM | 5000 nM
COC1(C(=O)N2CCN(c3cc(S(=O)(=O)NC4(C)CC4)cn4c(-c5nnc(C(F)F)s5)ncc34)CC2)CC1 [Example 196, 3-(5-(difluoromethyl)-1,3,4-thiadiazol-2-yl)-8-(4-(1-methoxycyclopropane-1-carbonyl)piperazin-1-yl)-N-(1-methylcyclopropyl)imidazo[1,5-a]pyridine-6-sulfonamide] | < 0.1 nM | 6.34 nM |  | 
N#CC1(NS(=O)(=O)c2cc(N3CCN(C(=O)C(O)C(F)(F)F)CC3)c3cnc(-c4nnc(C(F)F)s4)n3c2)CC1 (stereo not drawn) [Example 261, N-(1-cyanocyclopropyl)-3-(5-(difluoromethyl)-1,3,4-thiadiazol-2-yl)-8-(4-(3,3,3-trifluoro-2-hydroxypropanoyl)piperazin-1-yl)imidazo[1,5-a]pyridine-6-sulfonamide] | 100 nM | 370 nM |  | 
COC1(C(=O)N2CCN(c3cc(S(=O)(=O)NC4(C)CC4)cn4c(-c5nnc(C(F)F)s5)ncc34)CC2)CN(CCF)C1 [Example 312, 3-(5-(difluoromethyl)-1,3,4-thiadiazol-2-yl)-8-(4-(1-(2-fluoroethyl)-3-methoxyazetidine-3-carbonyl)piperazin-1-yl)-N-(1-methylcyclopropyl)imidazo[1,5-a]pyridine-6-sulfonamide] | < 0.1 nM | 6.02 nM |  | 
CC(C)C(=O)N1CCN(c2cc(S(=O)(=O)NC3CC3)cn3c(-c4nnc(C(F)F)s4)nc(Cl)c23)C[C@H]1C [Example 131, (R)-1-chloro-N-cyclopropyl-3-(5-(difluoromethyl)-1,3,4-thiadiazol-2-yl)-8-(4-isobutyryl-3-methylpiperazin-1-yl)imidazo[1,5-a]pyridine-6-sulfonamide] | 22.9 nM | 1680 nM |  | 
COC1(C(=O)N2CCN(c3cc(S(=O)(=O)NC4(C)CC4)cn4c(-c5nnc(C(F)(F)F)s5)nc(C#N)c34)CC2)CC1 [Example 199, 1-cyano-8-(4-(1-methoxycyclopropane-1-carbonyl)piperazin-1-yl)-N-(1-methylcyclopropyl)-3-(5-(trifluoromethyl)-1,3,4-thiadiazol-2-yl)imidazo[1,5-a]pyridine-6-sulfonamide] | 0.34 nM | 11.5 nM |  | 
COC1(C(=O)N2CCN(c3cc(S(=O)(=O)NC4(C#N)CC4)cn4c(-c5nnc(C(F)F)s5)ncc34)CC2)CC1 [Example 192, N-(1-cyanocyclopropyl)-3-(5-(difluoromethyl)-1,3,4-thiadiazol-2-yl)-8-(4-(1-methoxycyclopropane-1-carbonyl)piperazin-1-yl)imidazo[1,5-a]pyridine-6-sulfonamide] | 0.83 nM | 30 nM |  | 
COC1(C(=O)N2CCN(c3cc(S(=O)(=O)NC4(C)CC4)cn4c(-c5nnc(C(F)F)s5)ncc34)C[C@H]2CO)CC1 [Example 201, (S)-3-(5-(difluoromethyl)-1,3,4-thiadiazol-2-yl)-8-(3-(hydroxymethyl)-4-(1-methoxycyclopropane-1-carbonyl)piperazin-1-yl)-N-(1-methylcyclopropyl)imidazo[1,5-a]pyridine-6-sulfonamide] | 0.14 nM | 9.06 nM |  | 

The remaining lines, values ahead:

IC50 (PARG; PARG, TFMU-ADPr substrate) | IC50 (HCC1806; Homo sapiens, HCC1806, 168 h) | IC50 (PARG; [1]) | IC50 (HCC1806) | Compound
6.11 nM | 89 nM |  |  | C[C@@H]1CN(c2cc(S(=O)(=O)NC3(C)CC3)cn3c(-c4nnc(C(F)(F)F)s4)ncc23)CCN1C(=O)[C@H]1CCN1C [Example 306, 8-((R)-3-methyl-4-((R)-1-methylazetidine-2-carbonyl)piperazin-1-yl)-N-(1-methylcyclopropyl)-3-(5-(trifluoromethyl)-1,3,4-thiadiazol-2-yl)imidazo[1,5-a]pyridine-6-sulfonamide]
41.7 nM | < 500 nM | < 100 nM | 431 nM | CC(C)C(=O)N1CCN(c2cc(S(=O)(=O)NC3(C)CC3)cn3c(-c4nnc(C(F)(F)F)s4)nnc23)C[C@H]1C [Example 119, (R)-8-(4-isobutyryl-3-methylpiperazin-1-yl)-N-(1-methylcyclopropyl)-3-(5-(trifluoromethyl)-1,3,4-thiadiazol-2-yl)-[1,2,4]triazolo[4,3-a]pyridine-6-sulfonamide]
2.71 nM | 93.9 nM |  |  | CC1(NS(=O)(=O)c2cc(N3CCN(C(=O)[C@H]4CCN4CCF)CC3)c3cnc(-c4nnc(C(F)(F)F)s4)n3c2)CC1 [Example 320, (R)-8-(4-(1-(2-fluoroethyl)azetidine-2-carbonyl)piperazin-1-yl)-N-(1-methylcyclopropyl)-3-(5-(trifluoromethyl)-1,3,4-thiadiazol-2-yl)imidazo[1,5-a]pyridine-6-sulfonamide]
50.1 nM | 400 nM |  |  | CC(=O)N1CCN(c2cc(S(=O)(=O)NC3(C#N)CC3)cn3c(-c4nnc(C(F)(F)F)s4)ncc23)CC1 [Example 173, 8-(4-acetylpiperazin-1-yl)-N-(1-cyanocyclopropyl)-3-(5-(trifluoromethyl)-1,3,4-thiadiazol-2-yl)imidazo[1,5-a]pyridine-6-sulfonamide]
79.4 nM | 20000 nM |  |  | N#CC1(NS(=O)(=O)c2cc(N3CCN(C(=O)[C@@H]4CCN4)CC3)c3cnc(-c4nnc(C(F)(F)F)s4)n3c2)CC1 [Example 269, (S)-8-(4-(azetidine-2-carbonyl)piperazin-1-yl)-N-(1-cyanocyclopropyl)-3-(5-(trifluoromethyl)-1,3,4-thiadiazol-2-yl)imidazo[1,5-a]pyridine-6-sulfonamide]
550 nM | 2830 nM |  |  | CCC(=O)C1CCN(c2cc(S(=O)(=O)NC3(C#N)CC3)cn3c(-c4nnc(C(F)(F)F)s4)ncc23)CC1 [Example 258, N-(1-cyanocyclopropyl)-8-(4-propionylpiperidin-1-yl)-3-(5-(trifluoromethyl)-1,3,4-thiadiazol-2-yl)imidazo[1,5-a]pyridine-6-sulfonamide]
0.5 nM | 85 nM |  |  | C[C@H]1CN(c2cc(S(=O)(=O)NC3(C)COC3)cn3c(-c4nnc(C(F)(F)F)s4)ncc23)C[C@H](C)O1 [Example 355, 8-((2S,6S)-2,6-dimethylmorpholino)-N-(3-methyloxetan-3-yl)-3-(5-(trifluoromethyl)-1,3,4-thiadiazol-2-yl)imidazo[1,5-a]pyridine-6-sulfonamide]
